Data published in US8586505B2 (SDS Biotech K. K., priority 2009, dated 2013).

Legend:
Type in all cases: in vivo
[1] = test system: Pseudoperonospora cubensis; assay: Test of examining control effect on Pseudoperonospora cubensis (potted cucumber plants); conditions: 96 h, 10% wettable powder adjusted to 125 ppm, 15 ml/pot sprayed on potted cucumber plants one day before spray inoculation, assessed after 1 day wet chamber and 3 days greenhouse, read-out: Determination of control effect (preventive value) on Pseudoperonospora cubensis
Summary of the method: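 Cucumber plants (Sagamihanjiro, 2.5-leaf stage) sprayed with 125 ppm compound solution from 10% wettable powder, 15 ml/pot. One day later, spray-inoculated with P. cubensis conidia (1.0×10^4 cells/ml), kept 1 day at 21° C wet, then 3 days in greenhouse. Preventive value derived from lesion area relative to untreated plants.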

Phytophthora infestans = assay: whole plant or invertebrate; conditions: in Solanum lycopersicum, 96 h, read-out: Determination of control effect (preventive value)
Sphaerotheca fuliginea = assay: Test of examining control effect on Sphaerotheca fuliginea (potted cucumber plants); conditions: Podosphaera fuliginea, 336 h; 10% wettable powder adjusted to 125 ppm, 15 ml/pot sprayed on potted cucumber plants one day before spray inoculation; assessed after 14 days in greenhouse; read-out: Determination of control effect (preventive value) on Sphaerotheca fuliginea
Summary of the method: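 Cucumber plants (Sagamihanjiro, 2nd leaf stage) sprayed with 125 ppm compound (from 10% wettable powder), inoculated one day later with S. fuliginea conidia (1.0×10^5 cells/ml); lesion area scored after 14 days in greenhouse. Preventive value vs untreated; ≥60% high, <60% low control.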

SMILES	pest or weed control at 125 µg/mL [1] [%]	pest or weed control at 125 ppm (Phytophthora infestans) [%]	pest or weed control at 125 µg/mL (Sphaerotheca fuliginea) [%]
C[Si](C)(C)C#CCCNc1ncnc2sccc12 [Compound No. 2, 4-(4-Trimethylsilanyl-3-butynylamino)thieno[2,3-d]pyrimidine]	60 to 100	60 to 100	60 to 100
COCc1ccccc1C#CCCNc1ncnc2c(Cl)cccc12 [compound 311]	60 to 100	60 to 100	60 to 100
CC(CC#Cc1ccccc1)Nc1ncnc2ccccc12 (stereo not drawn) [compound 270]	60 to 100	0 to 60	60 to 100
C#CCCNc1ncnc2sccc12 [compound 1, 4-(3-butynylamino)thieno[2,3-d]pyrimidine]	0 to 60	0 to 60	0 to 60
CSc1ncnc(NCCC#Cc2ccccc2C(F)(F)F)c1[N+](=O)[O-] [compound 371]	0 to 60	0 to 60	0 to 60
COCc1ccccc1C#CCCNc1ncnc2ccc(-c3cccc(F)c3)cc12 [compound 335]	60 to 100	0 to 60	0 to 60
OCc1ccccc1C#CCCNc1ncnc2ccccc12 [compound 130]	60 to 100	60 to 100	60 to 100
FC(F)(F)c1ccc(C#CCCNc2ncnc3ccccc23)cc1Cl [compound 177]	60 to 100	60 to 100	60 to 100
CC(CC#Cc1c(Cl)cccc1Cl)Nc1ncnc2sccc12 (stereo not drawn) [compound 251]	60 to 100	0 to 60	60 to 100
CN(C)c1ccc(C#CCCNc2ncnc3ccccc23)cc1 [compound 159]	60 to 100	0 to 60	60 to 100
C(#Cc1cncc2ccccc12)CCNc1ncnc2ccccc12 [compound 192]	60 to 100	0 to 60	0 to 60
COc1ccc(C#CCC(C)Nc2ncnc3ccccc23)c(C(F)(F)F)c1 (stereo not drawn) [compound 287]	60 to 100	0 to 60	60 to 100
Cc1ncnc(NC(C)CC#Cc2ccc(Cl)cc2C(F)(F)F)c1I (stereo not drawn) [compound 386]	60 to 100	0 to 60	60 to 100
Cc1ccc(Oc2ccc(C#CCCNc3ncnc4ccccc34)cc2)cc1 [compound 186]	0 to 60	0 to 60	60 to 100
CC(F)c1ncnc(NCCC#Cc2ccccc2)c1I (stereo not drawn) [compound 374]	60 to 100	0 to 60	60 to 100
Brc1csc(C#CCCNc2ncnc3sccc23)n1 [compound 64]	60 to 100	0 to 60	0 to 60
Fc1ccc(C#CCCNc2ncnc3ccccc23)cn1 [compound 194]	60 to 100	0 to 60	60 to 100
COCc1ccccc1C#CCC(C)Nc1ncnc2ccccc12 (stereo not drawn) [compound 278]	60 to 100	60 to 100	60 to 100
Cc1nc(C#CCC(C)Nc2ncnc3ccccc23)cs1 (stereo not drawn) [compound 292]	60 to 100	60 to 100	60 to 100
FC(F)(F)c1ccccc1C#CCCNc1ncnc2ccccc12 [compound 101]	60 to 100	60 to 100	60 to 100
Cc1ccsc1C#CCCNc1ncnc2ccccc12 [compound 208]	60 to 100	60 to 100	60 to 100
